Test results reported in patent US8252940B2, “5-substituted-2-imino-thiazolidinone compounds and their use as inhibitors of bacterial infection” (University of Washington, priority 2008, dated 2012).

Assays:
[1] = test system: S. typhimurium T3S secreted substrates; format: cell-based; settings: Western blot
[2] = test system: T2-dependent secretion of elastase; assay: Elastolytic activity assay of culture supernatants (elastin Congo red); settings: 380 μM; 18 hour culture (PAO1-C); untreated PAO1 1.881, pilD 0.098
InvG, PrgH and PrgK = assay: Abundance and membrane localization of NC proteins (Western blot of membrane fractions); format: cell-based, S. typhimurium; settings: 380 μM
Method: FIG. 3A is an image of a Western blot of type III secretion NC proteins isolated from S. typhimurium grown in the presence (+) or absence (−) of 380 μM of Compound 1. FIG. 3B is an image of a Western blot of membrane fractions of S. typhimurium grown in the presence (+) or absence (−) of 380 μM of Compound 1. In the presence of Compound 1, InvG cellular levels and bacterial membrane localization were unaltered (FIGS. 3A and 3B). Similarly, protein levels and localization of the other NC proteins PrgH and PrgK were unchanged.

Ysc T3S system = assay: Secretion profile of Y. enterocolitica Ysc T3S system; format: cell-based, Yersinia enterocolitica; settings: 380 μM
[3] = test system: invF, prgH, and sipA genes; assay: Transcriptional reporter fusions of T3S genes to lacZ, β-Galactosidase activity; settings: cultures grown in presence vs absence of compound
[4] = test system: bone marrow macrophages infected with S. typhimurium; assay: S. typhimurium T3-dependent cytotoxicity of bone marrow macrophages (LDH release); settings: bacteria grown in presence of compound; multiplicity of 40; 40% without compound
[5] = test system: Pseudomonas syringae pv tomato DC3000; assay: Hypersensitivity response (HR) in non-host tobacco plants; format: in vivo; settings: 380 μM, overlapping infiltration, compared with solvent alone; 24 hours
From the text: Inhibition of T3S-dependent pathogenesis of the plant pathogen, Pseudomonas syringae pv tomato DC3000 for tobacco. The bacterial plant pathogen Pseudomonas syringae pv tomato DC3000 requires T3S of virulence determinants to cause disease. The hypersensitivity response (HR) elicited by P. syringae in non-host tobacco plants depends upon a functional T3S system, representing an established virulence model for this pathogen. To determine the effect of Compound 1 on P. syringae pathogenesis for plants, overlapping infiltrations of P. syringae and Compound 1 were performed. P. syringae was inoculated on non-host tobacco plants and monitored for HR. Bacterial inoculations partially overlapped inoculations of either 380 μM of Compound 1 or the solvent DMSO. HR was measured by tissue collapse of plants cells in the overlapping region.
Therefore, these compounds, which blocked disease in an important model of plant pathogenesis, may have utility in preventing disease of plants.

bone marrow macrophages = assay: Cytotoxicity of compound added directly to macrophages (LDH release)
Ysa T3S system = assay: Secretion profile of Y. enterocolitica Ysa T3S system; format: cell-based, Yersinia enterocolitica; settings: 380 μM
[6] = test system: P. aeruginosa twitching motility (T4P); assay: Twitching assay; format: cell-based, Pseudomonas aeruginosa; settings: 380 μM in motility plates
[7] = test system: type III secretion in S. typhimurium; assay: microbe, parasite or virus in culture; format: cell-based, Salmonella enterica serovar Typhimurium; settings: for % Secretion: type III secretion in S. typhimurium, SipA secretion by Western blot; for inhibition at 3.3 µM / inhibition at 330 µM / inhibition at 33 µM: Salmonella enterica, TYPHIMURIUM, read-out: % inhibition of SipA secretion; for % inhibition of SipA secretion: Western blot
T3S needle complex (NC) = T3S needle complex (NC) (Salmonella typhimurium, UniProt P35672); format: cell-based, S. typhimurium
flagellar T3S system = assay: Flagellar function: motility assay and flagellin secretion; format: cell-based, S. typhimurium; settings: 380 μM
[8] = test system: Francisella virulence protein secretion; format: cell-based, Francisella novicida; settings: 380 μM

Chain of T3S needle complex (NC) (P35672 25-562, one chain of several): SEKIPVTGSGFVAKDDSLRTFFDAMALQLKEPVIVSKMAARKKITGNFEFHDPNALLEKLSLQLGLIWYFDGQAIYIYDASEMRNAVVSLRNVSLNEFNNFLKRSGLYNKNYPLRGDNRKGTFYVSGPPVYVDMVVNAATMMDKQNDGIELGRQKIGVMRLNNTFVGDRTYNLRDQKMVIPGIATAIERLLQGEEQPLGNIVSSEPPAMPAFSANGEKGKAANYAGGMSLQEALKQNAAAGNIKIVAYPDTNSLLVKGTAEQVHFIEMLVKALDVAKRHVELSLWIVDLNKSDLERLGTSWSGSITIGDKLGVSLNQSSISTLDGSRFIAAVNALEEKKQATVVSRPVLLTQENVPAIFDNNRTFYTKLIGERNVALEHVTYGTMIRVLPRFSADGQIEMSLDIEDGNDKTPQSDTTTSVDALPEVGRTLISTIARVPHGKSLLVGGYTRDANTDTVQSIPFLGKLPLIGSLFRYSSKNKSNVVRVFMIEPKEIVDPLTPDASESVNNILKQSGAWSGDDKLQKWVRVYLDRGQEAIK

## COc1cc(/C=C2\S/C(=N\c3ccccc3)N(c3ccccc3)C2=O)cc(OC)c1O [Compound 1]
[1]
  secretion of SipA and SspH1 expressed from the T3S-independent lac promoter: Neither of these proteins was secreted
[1]; cultures grown in presence of compound
  amount of T3 secreted proteins SipA, B, and C: marked decrease
[2]
  OD495, elastolytic activity of culture supernatant: 0.437
InvG, PrgH and PrgK
  InvG cellular levels and bacterial membrane localization: unaltered
  protein levels and localization of PrgH and PrgK: unchanged
Ysc T3S system
  Yop proteins in culture supernatants: absent
[3]
  β-Galactosidase activity of invF, prgH, sipA lacZ fusions: similar
[4]
  caspase-1 dependent cell death of macrophages: 0.5%
[5]
  ability of P. syringae to elicit HR: reduced ability to elicit HR
Bone marrow macrophages
  lysis of macrophages exposed to compound alone: did not lyse
Ysa T3S system
  Ysp proteins in culture supernatants: absent
[6]
  P. aeruginosa twitching motility: significantly reduced
[7]; 380 uM
  inhibition of known T3S substrates: complete inhibition
[7]
  % Secretion: 0 ± 0%
T3S needle complex (NC); 380 μM, Western blot
  NC proteins in isolated needle complexes: overall reduction
T3S needle complex (NC); electron micrographs of osmotically shocked cells
  NC number on the cell surface: marked reduction
Flagellar T3S system
  S. typhimurium motility: unaffected
  secretion of flagellin: unaltered
[8]
  secretion of the known Francisella virulence proteins: inhibited secretion

## COc1cc(/C=C2\S/C(=N\c3ccccc3)N(CCCC(=O)O)C2=O)cc(OC)c1O [compound 61, 4-((2Z,5Z)-5-(4-hydroxy-3,5-dimethoxybenzylidene)-4-oxo-2-(phenylimino)thiazolidin-3-yl)butanoic acid]
[7]
  inhibition at 3.3 µM: 70%
  inhibition at 330 µM: 74%

## COc1cc(/C=C2\S/C(=N\c3ccccc3)N([C@H](C)C(=O)N[C@@H](Cc3c[nH]c4ccccc34)C(N)=O)C2=O)cc(OC)c1O [compound 52, (R)-N-((S)-1-amino-3-(1H-indol-3-yl)-1-oxopropan-2-yl)-2-((2Z,5Z)-5-(4-hydroxy-3,5-dimethoxybenzylidene)-4-oxo-2-(phenylimino)thiazolidin-3-yl)propanamide]
[7]
  inhibition at 330 µM: 100%

## COc1cc(/C=C2\S/C(=N\c3ccccc3)N(C(CCCNC(=N)N)C(=O)N3Cc4ccccc4C[C@H]3C(N)=O)C2=O)cc(OC)c1O (stereo partly drawn) [compound 88, (S)-2-(5-guanidino-2-((2Z,5Z)-5-(4-hydroxy-3,5-dimethoxybenzylidene)-4-oxo-2-(phenylimino)thiazolidin-3-yl)pentanoyl)-1,2,3,4-tetrahydroisoquinoline-3-carboxamide]
[7]
  inhibition at 33 µM: 0%
  inhibition at 330 µM: 100%

## COc1cc(/C=C2\S/C(=N\c3ccccc3)N(CCCCCCN)C2=O)cc(OC)c1O [compound 45, (2Z,5Z)-3-(6-aminohexyl)-5-(4-hydroxy-3,5-dimethoxybenzylidene)-2-(phenylimino)-thiazolidin-4-one]
[7]
  inhibition at 3.3 µM: 12%
  inhibition at 33 µM: 42%
  inhibition at 330 µM: 95%

## COc1cc(/C=C2\S/C(=N\c3ccccc3)N([C@H](C)C(=O)N[C@@H](CCCN)C(N)=O)C2=O)cc(OC)c1O [compound 84, (S)-5-amino-2-((R)-2-((2Z,5Z)-5-(4-hydroxy-3,5-dimethoxybenzylidene)-4-oxo-2-(phenylimino)thiazolidin-3-yl)propanamido)pentanamide]
[7]
  inhibition at 3.3 µM: 5%
  inhibition at 330 µM: 99%

## COc1cc(/C=C2\SC(=N)N(c3ccccc3)C2=O)cc(OC)c1O [Compound 5]
[7]
  % Secretion: 81.2 ± 0%

## COc1cc(CC2SC(=N)NC2=O)cc(OC)c1O (stereo not shown) [Compound 9]
[7]
  % Secretion: 72 ± 0%

## COc1cc(/C=C2\SC(=N)NC2=O)cc(OC)c1O [Compound 6]
[7]
  % Secretion: 64 ± 4%

## COc1cc(/C=C2\S/C(=N\c3ccc(CN)cc3)N(c3ccccc3)C2=O)cc(OC)c1O [compound 46, (2Z,5Z)-2-(4-(aminomethyl)phenylimino)-5-(4-hydroxy-3,5-dimethoxybenzyldene)-3-phenylthiazolidin-4-one]
[7]; 3.3 μM
  % inhibition of SipA secretion: 7%
[7]; 33 μM
  % inhibition of SipA secretion: 16%
[7]; 330 μM
  % inhibition of SipA secretion: 85%

## COc1cc(/C=C2\S/C(=N\c3ccccc3)N(C(Cc3ccncc3)C(=O)N[C@@H](CCCNC(=N)N)C(N)=O)C2=O)cc(OC)c1O (stereo partly drawn) [compound 95, (S)-5-guanidino-2-(2-((2Z,5Z)-5-(4-hydroxy-3,5-dimethoxybenzylidene)-4-oxo-2-(phenylimino)thiazolidin-3-yl)-3-(pyridin-4-yl)propanamido)pentanamide]
[7]
  inhibition at 33 µM: 8%
  inhibition at 330 µM: 89%
